Data as given in PubChem BioAssay (NCI).
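Each compound was tested at five concentrations against cells in 96-well plates for 48 hours. TGI marks complete inhibition of growth.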

Tests used:
Assay in all cases: NCI anticancer screen, dose series, 48 h
A549 NSCLC = tested on: A549 NSCLC
COLO 205 colon = tested on: COLO 205 colon
EKVX NSCLC = tested on: EKVX NSCLC
HCC-2998 colon = tested on: HCC-2998 colon
HCT-116 colon = tested on: HCT-116 colon
HT29 colon = tested on: HT29 colon
IGROV1 ovarian = tested on: IGROV1 ovarian
MALME-3M melanoma = tested on: MALME-3M melanoma
MDA-MB-231 breast = tested on: MDA-MB-231 breast
MOLT-4 leukemia = tested on: MOLT-4 leukemia
OVCAR-3 ovarian = tested on: OVCAR-3 ovarian
OVCAR-5 ovarian = tested on: OVCAR-5 ovarian
RPMI-8226 leukemia = tested on: RPMI-8226 leukemia
RXF 393 renal = tested on: RXF 393 renal
SN12C renal = tested on: SN12C renal
SNB-19 CNS = tested on: SNB-19 CNS
U251 CNS = tested on: U251 CNS
UACC-62 melanoma = tested on: UACC-62 melanoma
UO-31 renal = tested on: UO-31 renal
HL-60(TB) leukemia = tested on: HL-60(TB) leukemia

SMILES	TGI (A549 NSCLC)	TGI (COLO 205 colon)	TGI (EKVX NSCLC)	TGI (HCC-2998 colon)	TGI (HCT-116 colon)	TGI (HT29 colon)	TGI (IGROV1 ovarian)	TGI (MALME-3M melanoma)	TGI (MDA-MB-231 breast)	TGI (MOLT-4 leukemia)	TGI (OVCAR-3 ovarian)	TGI (OVCAR-5 ovarian)	TGI (RPMI-8226 leukemia)	TGI (RXF 393 renal)	TGI (SN12C renal)	TGI (SNB-19 CNS)	TGI (U251 CNS)	TGI (UACC-62 melanoma)	TGI (UO-31 renal)	TGI (HL-60(TB) leukemia)
CCOC(=O)/C=C/[C@H](O[Si](CC)(CC)CC)C(C)(C)C	> 100 µM	> 100 µM	> 100 µM	> 100 µM	> 100 µM	> 100 µM	> 100 µM	> 100 µM	> 100 µM	> 100 µM	> 100 µM	> 100 µM	41.3 µM	> 100 µM	> 100 µM	> 100 µM	65.8 µM	> 100 µM	> 100 µM	–
O=C(c1cccs1)N(C(=O)N1CCN(c2ccccc2)CC1)S(=O)(=O)c1ccccc1	98.4 µM	30.1 µM	42.3 µM	> 100 µM	38.6 µM	> 100 µM	–	42.1 µM	51.6 µM	49.8 µM	> 100 µM	55.7 µM	–	–	35.1 µM	72.2 µM	33.3 µM	33.8 µM	40.8 µM	45 µM
COc1cc(N(CCC#N)CCC#N)ccc1/C(N=Nc1ccccc1C)=N\NC(=O)c1ccc(C)cc1	> 100 µM	> 100 µM	> 100 µM	> 100 µM	> 100 µM	> 100 µM	> 100 µM	> 100 µM	> 100 µM	> 100 µM	> 100 µM	> 100 µM	–	> 100 µM	> 100 µM	> 100 µM	> 100 µM	> 100 µM	> 100 µM	23 µM
Cc1c(O)c(OC2OC(CO)C(O)C(O)C2O)cc2c1CC[C@@H]1C2(C)C(=O)C[C@]2(C)[C@@H]([C@@](C)(O)C(=O)CCC(C)(C)O)[C@H](O)C[C@@]12C (stereo partly drawn)	> 100 µM	> 100 µM	> 100 µM	> 100 µM	> 100 µM	> 100 µM	> 100 µM	> 100 µM	> 100 µM	> 100 µM	> 100 µM	> 100 µM	–	> 100 µM	> 100 µM	> 100 µM	> 100 µM	> 100 µM	> 100 µM	–
Cc1cn(C2CC(O)C(CO[Si](C)(C)C(C)(C)C)OC2OC(C)C)c(=O)[nH]c1=O (stereo not drawn)	> 100 µM	48.9 µM	> 100 µM	62.7 µM	31.3 µM	44.1 µM	77 µM	> 100 µM	> 100 µM	–	46.3 µM	> 100 µM	78.2 µM	88.7 µM	> 100 µM	> 100 µM	> 100 µM	> 100 µM	> 100 µM	–
O=C(N[C@@H](c1ccccc1)[C@@H](O)C(=O)OCc1ccc([N+](=O)[O-])cc1)c1ccccc1	> 100 µM	> 100 µM	> 100 µM	> 100 µM	> 100 µM	> 100 µM	> 100 µM	> 100 µM	> 100 µM	76 µM	> 100 µM	> 100 µM	–	> 100 µM	> 100 µM	> 100 µM	> 100 µM	> 100 µM	> 100 µM	–
Cc1nn(C(=O)Cc2ccccc2)c2c1C(c1ccc(Cl)cc1)SC(N)=N2 (stereo not drawn)	> 100 µM	> 100 µM	> 100 µM	> 100 µM	> 100 µM	> 100 µM	> 100 µM	> 100 µM	> 100 µM	> 100 µM	–	–	> 100 µM	–	> 100 µM	–	–	> 100 µM	–	> 100 µM
COC1=CC2C(c3cc4ccccc4n3S(=O)(=O)c3ccccc3)CC1CN2C(=O)OCc1ccccc1 (stereo not drawn)	> 100 µM	31.2 µM	82.2 µM	> 100 µM	> 100 µM	65.1 µM	> 100 µM	61 µM	58.7 µM	–	> 100 µM	45.2 µM	44.6 µM	69.2 µM	> 100 µM	–	> 100 µM	> 100 µM	> 100 µM	41.9 µM
C/C(=N/NC(=S)Nc1ccc(Cl)cc1)c1cccc(/C(C)=N\NC(=S)Nc2ccc(Cl)cc2)n1	53.2 µM	30.7 µM	> 100 µM	> 100 µM	22.4 µM	> 100 µM	> 100 µM	36 µM	48.4 µM	16.7 µM	47.1 µM	> 100 µM	39.7 µM	27.1 µM	> 100 µM	> 100 µM	60.3 µM	43.1 µM	53.2 µM	–
O=C(c1ccccc1)c1c(-c2ccccc2)n(-c2ccccc2)[nH]c(=O)c1=O	> 100 µM	> 100 µM	> 100 µM	> 100 µM	> 100 µM	> 100 µM	> 100 µM	> 100 µM	84.9 µM	> 100 µM	> 100 µM	> 100 µM	> 100 µM	–	> 100 µM	> 100 µM	> 100 µM	75.5 µM	> 100 µM	85 µM
CC(=O)O[C@H]1CC[C@@]2(C)C(=CC[C@@H]3[C@@H]2CC[C@]2(C)NC(=O)/C(=C\c4ccccc4)C[C@@H]32)C1	38.5 µM	38.5 µM	34.8 µM	62 µM	46.9 µM	31.2 µM	42 µM	36.2 µM	53 µM	> 100 µM	28.9 µM	35 µM	64.2 µM	27.8 µM	42 µM	31.8 µM	37.6 µM	33.1 µM	33.1 µM	–
[N-]=[N+]=NC1C(O)C(CO)OC1n1ccc(=O)[nH]c1=O (stereo not drawn)	> 875 µM	> 875 µM	> 875 µM	> 875 µM	> 875 µM	> 875 µM	> 875 µM	> 875 µM	> 875 µM	> 875 µM	> 875 µM	> 875 µM	> 875 µM	–	> 875 µM	> 875 µM	> 875 µM	> 875 µM	> 875 µM	> 875 µM
O=S1(=O)Cc2ccc3c4c2-c2c(ccc5ccc(c-4c25)CS(=O)(=O)C3)C1	> 100 µM	–	> 100 µM	> 100 µM	> 100 µM	> 100 µM	> 100 µM	> 100 µM	> 100 µM	> 100 µM	> 100 µM	> 100 µM	> 100 µM	–	> 100 µM	> 100 µM	> 100 µM	> 100 µM	> 100 µM	> 100 µM
O=c1oc2ccccc2cc1-c1cn2ccccc2n1	21 µM	> 100 µM	29.3 µM	39.4 µM	30.1 µM	51.7 µM	26.3 µM	14.7 µM	18.5 µM	> 80.8 µM	14.3 µM	46.7 µM	47.3 µM	13.8 µM	17.7 µM	12.7 µM	5.66 µM	15.8 µM	7.02 µM	–
Cn1c(=O)oc2cc(C(O)CN3CCN(Cc4ccccn4)CC3)c(Cl)cc21 (stereo not drawn)	> 100 µM	> 100 µM	> 100 µM	> 100 µM	> 100 µM	> 100 µM	> 100 µM	> 100 µM	> 100 µM	> 100 µM	> 100 µM	> 100 µM	–	> 100 µM	> 100 µM	> 100 µM	> 100 µM	> 100 µM	> 100 µM	> 100 µM
COC(=O)[C@H](Cc1c[nH]c2ccccc12)NC(=O)c1ccc(CNC(=O)/C(C)=C/c2ccccc2)cc1	> 100 µM	50.5 µM	> 100 µM	73 µM	> 100 µM	> 100 µM	> 100 µM	25.6 µM	60.6 µM	> 100 µM	> 100 µM	> 100 µM	> 100 µM	7.78 µM	> 100 µM	> 100 µM	> 100 µM	41.7 µM	> 100 µM	–
Cc1cc(C2CC(O)C(CO)O2)c(F)cc1F (stereo not drawn)	> 100 µM	> 100 µM	> 100 µM	> 100 µM	> 100 µM	> 100 µM	> 100 µM	> 100 µM	> 100 µM	> 100 µM	> 100 µM	> 100 µM	–	> 100 µM	> 100 µM	> 100 µM	> 100 µM	> 100 µM	> 100 µM	> 100 µM
O=C1c2cccc3cccc(c23)C2NCCCN12 (stereo not drawn)	> 100 µM	> 100 µM	> 100 µM	> 100 µM	> 100 µM	> 100 µM	> 100 µM	> 100 µM	> 100 µM	> 100 µM	> 100 µM	> 100 µM	–	> 100 µM	> 100 µM	> 100 µM	> 100 µM	> 100 µM	> 100 µM	> 100 µM
COc1ccc2[nH]c3c(c2c1)CC(=S)N1CCCC(CC3=O)C1 (stereo not drawn)	> 100 µM	> 100 µM	> 100 µM	> 100 µM	> 100 µM	> 100 µM	> 100 µM	> 100 µM	> 100 µM	–	> 100 µM	> 100 µM	> 100 µM	81 µM	> 100 µM	> 100 µM	> 100 µM	> 100 µM	> 100 µM	–
